ChEMBL document CHEMBL1136021, “Design, synthesis, and SAR of substituted acrylamides as factor Xa inhibitors” (Bioorg Med Chem Lett, 2002)
pIC50, pKi: −log10 of the molar value.

Columns and labels:
[1] = target: T1, Coagulation factor X (Homo sapiens, UniProt P00742); assay: Inhibitory activity against factor Xa
[2] = target: Serine protease 1 (Homo sapiens, UniProt P07477); assay: Inhibitory activity against trypsin was determined
[3] = target: Prothrombin (Homo sapiens, UniProt P00734); assay: Inhibitory activity against Factor IIa (serine protease) was determined
[4] = target: T1, Coagulation factor X; assay: Inhibitory activity against Coagulation factor Xa (serine protease) was determined
[5] = target: T1, Coagulation factor X; assay: Inhibitory activity against factor Xa was determined
[6] = target: T1, Coagulation factor X; assay: Inhibitory activity against factor Xa, activity expressed as Ki nM

T1 sequence (P00742 41-179 limits assumed): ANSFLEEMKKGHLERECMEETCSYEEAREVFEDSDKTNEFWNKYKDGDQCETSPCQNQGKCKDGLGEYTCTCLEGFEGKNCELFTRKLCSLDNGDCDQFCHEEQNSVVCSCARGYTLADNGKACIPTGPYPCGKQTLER
T1 sequence (P00742 235-488 limits assumed): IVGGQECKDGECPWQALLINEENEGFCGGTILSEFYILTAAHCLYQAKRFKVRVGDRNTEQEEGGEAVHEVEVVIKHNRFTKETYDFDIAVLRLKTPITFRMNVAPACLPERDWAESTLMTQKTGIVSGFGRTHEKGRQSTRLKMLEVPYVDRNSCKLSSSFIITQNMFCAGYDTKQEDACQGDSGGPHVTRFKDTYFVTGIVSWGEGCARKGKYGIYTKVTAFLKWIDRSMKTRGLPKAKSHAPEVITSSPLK
Chain of Serine protease 1 (P07477 whole entry): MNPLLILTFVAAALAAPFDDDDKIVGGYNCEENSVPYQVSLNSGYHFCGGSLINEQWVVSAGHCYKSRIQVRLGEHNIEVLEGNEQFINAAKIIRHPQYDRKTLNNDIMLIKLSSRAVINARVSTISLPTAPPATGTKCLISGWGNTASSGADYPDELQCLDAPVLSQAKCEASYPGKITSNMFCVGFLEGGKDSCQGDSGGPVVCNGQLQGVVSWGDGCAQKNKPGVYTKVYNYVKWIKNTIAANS

| pIC50 [1] | SMILES | also measured |
| --- | --- | --- |
| 8.40 | CC(=CC(=O)Nc1ccc(-c2ccccc2S(N)(=O)=O)cc1)c1cccc(C(=N)N)c1 |  |
| 7.82 | C/C(=C(\F)C(=O)Nc1ccc(-c2ccccc2S(N)(=O)=O)cc1F)c1cc(C(=N)N)ccc1[N+](=O)[O-] |  |
| 7.74 | N=C(N)c1ccc(F)c(C=CC(=O)Nc2ccc(-c3ccccc3S(N)(=O)=O)cc2)c1 |  |
| 6.44 | CC(=Cc1cccc(C(=N)N)c1)C(=O)Nc1ccc(-c2ccccc2S(N)(=O)=O)cc1 |  |
| 9.00 | CC(=C(F)C(=O)Nc1ccc(-c2ccccc2S(N)(=O)=O)cc1)c1cccc(C(=N)N)c1 | pIC50 [2]: 6.59; pIC50 [3]: 5.50 |
| 9.70 | C/C(=C(\F)C(=O)Nc1ccc(-c2ccccc2S(N)(=O)=O)cc1F)c1cccc(C(=N)N)c1 | pIC50 [2]: 6.71; pIC50 [3]: 5.66 |
| 9.12 | CC(=C(F)C(=O)Nc1ccc(-c2ccccc2S(N)(=O)=O)cc1Br)c1ccc(F)c(C(=N)N)c1 |  |
| 8.82 | CC(=C(F)C(=O)Nc1ccc(-c2ccccc2S(N)(=O)=O)cc1F)c1ccc(F)c(C(=N)N)c1 |  |
| 7.89 | CCSCC(=C(F)C(=O)Nc1ccc(-c2ccccc2S(N)(=O)=O)cc1)c1cccc(C(=N)N)c1 |  |
| 8.52 | N=C(N)c1cccc(C(=C(F)C(=O)Nc2ccc(-c3ccccc3S(N)(=O)=O)cc2)C(F)(F)F)c1 |  |
| 7.00 | N=C(N)c1cc(C=CC(=O)Nc2ccc(-c3ccccc3S(N)(=O)=O)cc2)ccc1F |  |
| 9.13 | CC(=C(F)C(=O)Nc1ccc(-c2ccccc2S(N)(=O)=O)cc1Cl)c1ccc(F)c(C(=N)N)c1 | pKi [6]: 9.74 |
| 8.43 | N=C(N)c1cccc(C(CO)=C(F)C(=O)Nc2ccc(-c3ccccc3S(N)(=O)=O)cc2)c1 |  |
| 8.44 | CC(=C(F)C(=O)Nc1ccc(-c2ccccc2S(N)(=O)=O)cc1)c1ccc(F)c(C(=N)N)c1 |  |
| 8.59 | C/C(=C(\F)C(=O)Nc1ccc(-c2ccccc2S(N)(=O)=O)cc1F)c1cc(C(=N)N)ccc1N |  |

The remaining lines, values behind:

| SMILES | pIC50 [1] | also measured |
| --- | --- | --- |
| N=C(N)c1cccc(/C(=C\C(=O)Nc2ccc(-c3ccccc3S(N)(=O)=O)cc2)c2ccco2)c1 | 6.74 |  |
| COc1ccc(C(=N)N)cc1C=CC(=O)Nc1ccc(-c2ccccc2S(N)(=O)=O)cc1 | 6.67 |  |
| CC(=C(F)C(=O)Nc1ccc(-c2ccccc2S(N)(=O)=O)cc1Br)c1cccc(C(=N)N)c1 | 9.30 | pIC50 [2]: 6.72; pIC50 [3]: 6.30 |
| N=C(N)c1cccc(C=C(C(=O)Nc2ccc(-c3ccccc3S(N)(=O)=O)cc2)c2ccncc2)c1 | 6.20 |  |
| CS(=O)(=O)CC(=C(F)C(=O)Nc1ccc(-c2ccccc2S(N)(=O)=O)cc1)c1cccc(C(=N)N)c1 | 8.00 |  |
| N=C(N)c1cccc(C=CC(=O)Nc2ccc(-c3ccccc3S(N)(=O)=O)cc2)c1 [listing 1 of 2 here] | 7.77 |  |
| CC(C)C(=CC(=O)Nc1ccc(-c2ccccc2S(N)(=O)=O)cc1)c1cccc(C(=N)N)c1 | 7.46 |  |
| N=C(N)c1cccc(C(=CC(=O)Nc2ccc(-c3ccccc3S(N)(=O)=O)cc2)Cn2cnnn2)c1 | 7.28 |  |
| N=C(N)c1cccc(C(=CC(=O)Nc2ccc(-c3ccccc3S(N)(=O)=O)cc2)Cc2cc[nH]n2)c1 | 7.32 |  |
| CCC(=CC(=O)Nc1ccc(-c2ccccc2S(N)(=O)=O)cc1)c1cccc(C(=N)N)c1 | 8.15 |  |
| N=C(N)c1cccc(C(=CC(=O)Nc2ccc(-c3ccccc3S(N)(=O)=O)cc2)C(F)(F)F)c1 | 8.00 |  |
| N=C(N)c1cccc(C=CC(=O)Nc2ccc(-c3ccccc3S(N)(=O)=O)cc2)c1 [listing 2 of 2 here] |  | pIC50 [4]: 5.51 |
| CC(C)CC(=CC(=O)Nc1ccc(-c2ccccc2S(N)(=O)=O)cc1)c1cccc(C(=N)N)c1 | 8.30 |  |
| CC(=C(F)C(=O)Nc1ccc(-c2ccccc2S(N)(=O)=O)cc1Cl)c1cccc(C(=N)N)c1 | 9.30 | pIC50 [2]: 6.73; pIC50 [3]: 6.19 |
| COC(=O)C(=Cc1cccc(C(=N)N)c1)C(=O)Nc1ccc(-c2ccccc2S(N)(=O)=O)cc1 |  | pIC50 [5]: 6.12 |
| CC(=C(CC(=O)O)C(=O)Nc1ccc(-c2ccccc2S(N)(=O)=O)cc1)c1cccc(C(=N)N)c1 | 6.63 |  |
| COCC(=CC(=O)Nc1ccc(-c2ccccc2S(N)(=O)=O)cc1)c1cccc(C(=N)N)c1 | 8.15 |  |
| N=C(N)c1cccc(C=C(C(=O)Nc2ccc(-c3ccccc3S(N)(=O)=O)cc2)c2ccccn2)c1 | 6.18 |  |
| CN(C)CC(=C(F)C(=O)Nc1ccc(-c2ccccc2S(N)(=O)=O)cc1F)c1cccc(C(=N)N)c1 | 6.72 |  |
| CC(=C(CC(N)=O)C(=O)Nc1ccc(-c2ccccc2S(N)(=O)=O)cc1)c1cccc(C(=N)N)c1 | 7.00 |  |
| COCCOc1ccc(C(=N)N)cc1C=CC(=O)Nc1ccc(-c2ccccc2S(N)(=O)=O)cc1 | 8.05 |  |
| N=C(N)c1cccc(C(=CC(=O)Nc2ccc(-c3ccccc3S(N)(=O)=O)cc2)Cn2ncnn2)c1 | 6.61 |  |
| COc1ccc(C=CC(=O)Nc2ccc(-c3ccccc3S(N)(=O)=O)cc2)cc1C(=N)N | 5.19 |  |
